Assay results: EPA's ToxRefDB 2

Legend:
primate [1] = conditions: Sub-acute repeat dose toxicity, marmoset, Oral, Gavage/Intubation, dose end: 4 day, group: systemic
rat [2] = conditions: Subchronic oral toxicity in rodents, wistar, Gavage/Intubation, dose end: 91 day, group: systemic
dog [3] = conditions: Sub-acute repeat dose toxicity; beagle; Oral; Gavage/Intubation; dose end: 4 day; group: systemic; systemic / clinical chemistry / [other] / [other] + systemic / clinical chemistry / apolipoprotein a1 / apolipoprotein a1 + systemic / …
primate [4] = conditions: Subchronic oral toxicity in nonrodent, Gavage/Intubation, dose end: 91 day, group: systemic, systemic / in life observation / clinical signs / emesis
rabbit = conditions: Sub-acute repeat dose toxicity, Oral, Gavage/Intubation, dose end: 5 day, group: systemic
dog [5] = conditions: Sub-acute repeat dose toxicity; beagle; Oral; Gavage/Intubation; dose end: 4 day; group: systemic; systemic / in life observation / clinical signs / erythema + systemic / in life observation / clinical signs / reduced activity + systemic…
rat [6] = conditions: Sub-acute repeat dose toxicity; Oral; Gavage/Intubation; dose end: 5 day; group: systemic; systemic / in life observation / clinical signs / arrhythmia + systemic / in life observation / clinical signs / dehydration + systemic / in…
dog [7] = conditions: Subchronic oral toxicity in nonrodent, beagle, Feed, dose end: 26 week
dog [8] = conditions: Subchronic oral toxicity in nonrodent, beagle, Feed, dose end: 90 day, group: cholinesterase, cholinesterase / cholinesterase / cholinesterase / plasma cholinesterase (che)
rat [9] = conditions: Prenatal developmental toxicity study, Oral, Gavage/Intubation, dose end: 15 GD, group: maternal
rat [10] = conditions: Combined chronic toxicity/carcinogenicity; fischer; Oral; Feed; dose end: 105 week; group: cholinesterase; cholinesterase / cholinesterase / cholinesterase / erythrocyte cholinesterase (che) + cholinesterase / cholinesterase / cholinesterase / …
rat [11] = conditions: Multigenerational reproductive toxicity study, Crl: CD(SD) BRVAF/Plus, Oral, [Not Specified], dose end: 2 generation
mouse = conditions: Carcinogenicity; cd1; Oral; Feed; dose end: 97 week; group: cholinesterase; cholinesterase / cholinesterase / cholinesterase / erythrocyte cholinesterase (che) + cholinesterase / cholinesterase / cholinesterase / …
[12] = systemic / in life observation / clinical signs / defecation (diarrhea) + systemic / pathology microscopic / salivary glands / degeneration…
[13] = systemic / pathology microscopic / salivary glands / degeneration + systemic / hematology / fibrinogen / fibrinogen + systemic / pathology …
[14] = systemic / in life observation / body weight / body weight + systemic / in life observation / clinical signs / abnormal feces + systemic / …
[15] = systemic / pathology microscopic / intestine large / hyperplasia + systemic / pathology microscopic / stomach / hyperplasia
[16] = systemic / in life observation / body weight / body weight + systemic / in life observation / clinical signs / abnormal respiratory sounds…
[17] = systemic / in life observation / clinical signs / nasal discharge + systemic / in life observation / food consumption / food consumption
[18] = group: cholinesterase, cholinesterase / cholinesterase / cholinesterase / plasma cholinesterase (che) + cholinesterase / cholinesterase / cholinesterase / …
[19] = group: systemic, systemic / hematology / erythrocyte (rbc) count differential / erythrocyte (rbc) + systemic / hematology / hemoglobin (hgb) / hemoglobin (…
[20] = systemic / in life observation / body weight / body weight + systemic / in life observation / food consumption / food consumption
[21] = group: offspring, systemic / in life observation / body weight / offspring (pup) weight + systemic / in life observation / body weight / offspring (pup) …
[22] = group: parental, systemic / in life observation / body weight / body weight + systemic / in life observation / body weight / body weight gain + systemic / in…
[23] = group: reproductive, reproductive / reproductive performance / implantations / implantations

## Nc1cc2c3c(c1)C(c1ccccc1)=N[C@@H](NC(=O)c1cccnc1)C(=O)N3CC2 [CI-1044]
Primate [1]; [12]
  LOAEL: > 320 mg/kg/day
  NOAEL: ≥ 320 mg/kg/day
Primate [1]; [13]
  LEL: 80 mg/kg/day
  NEL: < 80 mg/kg/day
Rat [2]; [14]
  LOAEL: > 25 mg/kg/day
  NOAEL: ≥ 25 mg/kg/day
Rat [2]; [15]
  LEL: 3 mg/kg/day
  NEL: < 3 mg/kg/day
Dog [3]
  LEL: 20 mg/kg/day
  LOAEL: > 20 mg/kg/day
  NEL: < 20 mg/kg/day
  NOAEL: ≥ 20 mg/kg/day
Primate [4]
  LEL: 1 mg/kg/day
  LOAEL: > 15 mg/kg/day
  NEL: < 1 mg/kg/day
  NOAEL: ≥ 15 mg/kg/day
rabbit; [16]
  LOAEL: > 1000 mg/kg/day
  NOAEL: ≥ 1000 mg/kg/day
rabbit; [17]
  LEL: 50 mg/kg/day
  NEL: < 50 mg/kg/day
Dog [5]
  LEL: 50 mg/kg/day
  LOAEL: > 50 mg/kg/day
  NEL: < 50 mg/kg/day
  NOAEL: ≥ 50 mg/kg/day
Rat [6]
  LOAEL: > 50 mg/kg/day
  NEL: 10 mg/kg/day
  NOAEL: ≥ 50 mg/kg/day

## CCCSP(=O)(OCC)Oc1ccc(Br)cc1Cl (stereo not drawn) [Profenofos]
Dog [7]; group: cholinesterase, cholinesterase / cholinesterase / cholinesterase / plasma cholinesterase (che) + cholinesterase / cholinesterase / cholinesterase / brain …
  NOAEL: 0.005 mg/kg/day
Dog [7]; [18]
  LEL: 0.005 mg/kg/day
  LOAEL: 0.05 mg/kg/day
  NEL: < 0.005 mg/kg/day
Dog [7]; [19]
  LEL: 12.5 mg/kg/day
  LOAEL: > 12.5 mg/kg/day
  NEL: 2.5 mg/kg/day
  NOAEL: ≥ 12.5 mg/kg/day
Dog [8]
  LEL: 0.05 mg/kg/day
  LOAEL: 0.05 mg/kg/day
  NEL: < 0.05 mg/kg/day
  NOAEL: < 0.05 mg/kg/day
Rat [9]; [20]
  LOAEL: 60 mg/kg/day
  NEL: 10 mg/kg/day
  NOAEL: 30 mg/kg/day
Rat [9]; systemic / in life observation / food consumption / food consumption
  LEL: 30 mg/kg/day
Rat [10]
  LEL: 1 mg/kg/day
  LOAEL: 1 mg/kg/day
  NEL: 0.03 mg/kg/day
  NOAEL: 0.03 mg/kg/day
Rat [11]; [21]
  LEL: 29 mg/kg/day
  LOAEL: 29 mg/kg/day
  NEL: 7.3 mg/kg/day
  NOAEL: 7.3 mg/kg/day
Rat [11]; [22]
  LEL: 29 mg/kg/day
  LOAEL: 29 mg/kg/day
  NEL: 7.3 mg/kg/day
  NOAEL: 7.3 mg/kg/day
Rat [11]; [23]
  LEL: 29 mg/kg/day
  LOAEL: > 29 mg/kg/day
  NEL: 7.3 mg/kg/day
  NOAEL: ≥ 29 mg/kg/day
mouse
  LEL: 4.54 mg/kg/day
  LOAEL: 4.54 mg/kg/day
  NEL: 0.14 mg/kg/day
  NOAEL: 0.14 mg/kg/day
